Assay results reported in patent US20140228407A1, “TETRA-PYRIDINE COMPOUNDS AND COMPOSITION FOR PROTECTING CELLS, TISSUES AND ORGANS AGAINST ISCHEMIA-REPERFUSION INJURY” (YISSUM RESEARCH DEVELOPMENT COMPANY OF THE HEBREW …, priority 2011, published 2014).
Marks after values point to notes of the source that are not given here.

How the values were obtained:
[1] = test system: neonate rat cardiomyocyte cells; assay: Hypoxia/ischemia in neonatal rat cardiomyocyte cultures, LDH release; format: cell-based; details: 30, 100 and 300 nm compound vs 1 μM TPEN; 150 min ischemia then reoxygenation
Procedure: Rat hearts (1-2 days old) were sterilely removed and bathed three times in Ca^2+- and Mg^2+-free PBS to remove excess blood cells. The hearts were minced to small fragments and then agitated in a proteolytic enzyme-RDB solution prepared from a fig tree extract as described previously (Brik et al., 1990; Shneyvays et al., 2001). The RDB was diluted 1:200 in PBS at 25° C. for a few cycles of 10 min each. The supernatant suspension containing dissociated cells, to which medium containing 10% horse serum was added, was centrifuged at 500 g for 5 min. After centrifugation, the supernatant phase was discarded, and cells were resuspended in Dulbecco's modified Eagle medium supplemented with 10% heat-inactivated horse serum and 0.5% chick embryo extract. Cell suspensions were diluted to 1×10^6 cells/ml, and 300 μl was placed in 24 well plates (4 plates) collagen/gelatin-coated plastic culture dishes. Cultures were incubated in a humidified atmosphere of 5% CO2 and 95% air at 37° C. […] The growth medium was replaced every 3 days. The experiments were performed in vitro on these cardiomyocyte cultures after 3 to 5 days. […]
LDH activity was determined using LDH-L kit (Thermo Trace, Melbourne, Australia) within the cardiac cell medium (PBS). […] LDH enzymatic activity was measured in a spectrophotometer at a wavelength of 340 nm at 30° C. […]

[2] = test system: model of ischemia/reperfusion in the CD rat; assay: Rat model of ischemia/reperfusion, infarct analysis (Phase B); format: in vivo; details: for Infarct/AAR (%) Mean: 4 hour reperfusion; for Infarct/AAR (%) Mean / Infarct/LV (%) Mean: rat
Procedure: This study was conducted to evaluate the effects of the Compound #6 on cardiac function, infarct size, and Troponin I levels in a model of ischemia/reperfusion in the CD® (CR1CD® (SD)) rat. Phase A was conducted for toxicity evaluation purposes. In Phase B (the efficacy phase), two treatment groups of eight male rats were administered Compound #6 at dose levels of 0.2 and 2 mg/kg via intravenous infusion following myocardial infarction. The 2 mg/kg dose of Compound #6 was administered intravenously via a slow infusion starting 3 to 14 minutes prior to reperfusion and continuing for 20 minutes to 20 minutes and 32 seconds, which was approximately 6 to 17 minutes after reperfusion (depending on the infusion start time). The 0.2 mg/kg dose of Compound #6 was administered intravenously via a slow infusion starting 10 minutes prior to reperfusion and continuing for 30 minutes to 30 minutes and 30 seconds, which was approximately 20 minutes after reperfusion.
The animals were placed on mechanical ventilation and […]. Once anesthetized, the animal was placed in a right lateral recumbency, an arterial catheter or polyethylene tube was placed in the carotid artery for monitoring blood pressure and a thoracotomy was performed. The left coronary artery (LCA) was identified. A ligature was placed around the LCA and the vessel was ligated. The LCA was maintained occluded for 29 to 43 minutes. Occlusion of the vessel was verified via blanching of the heart and via ST interval changes. At the end of the occlusion period, the knot was loosened leaving the ligature in place, and the vessel was allowed to reperfuse for 3 hours 27 minutes to 4 hours 51 minutes. Following infarct, a chest tube was placed, the deep and superficial muscle layers were sutured at the surgical incision, and the skin was closed with staples. The chest tube was removed after spontaneous respiration was established. In Phase A, the animals were recovered from anesthesia and evaluated for 4 days. In Phase B, animals were maintained under anesthesia for 3 hours 27 minutes to 4 hours 51 minutes prior to being submitted to necropsy.
In Phase B, Compound #6 was administered once on Day 0 via intravenous infusion at dose levels of 0.2 and 2 mg/kg. The doses were administered at a dose volume of 1 mL/kg (0.05 [2 mg/kg] or 0.033 [0.2 mg/kg] mL/kg/minute). Two control groups received the vehicle (saline) or the vehicle for Compound #6 (10% (w/v) 2-hydroxypropyl-beta-cyclodextrin and 100 mM sodium chloride in deionized water) in the same manner as the 2 mg/kg treated group. The vehicles and 2 mg/kg Compound #6 were administered intravenously via a slow infusion starting 3 to 14 minutes prior to reperfusion and continuing for 20 minutes to 20 minutes and 32 seconds, which was approximately 6 to 17 minutes after reperfusion (depending on the infusion start time). The 0.2 mg/kg Compound #6 was administered intravenously via a slow infusion starting 10 minutes prior to reperfusion and continuing for 30 minutes to 30 minutes and 30 seconds, which was approximately 20 minutes after reperfusion. The positive control article, Erythropoietin, was administered at 5000 IU/kg via a bolus intravenous injection. The positive control article dose was administered at a dose volume of 2.5 mL/kg. The positive control was administered via a 3 to 60 second injection at 5 minutes prior to reperfusion.
After LAD reperfusion (4 hours), the animals were euthanized by an intraperitoneal injection of sodium pentobarbital followed by exsanguination via severing the abdominal vena cava. The heart was flushed with heparinized Lactated Ringers Solution (LRS) until clear of blood and the LAD was tied off using the same ligature used to occlude the vessel and Evan Blue dye was injected. The heart was weighed and breadloafed (4-5 sections per animal). […]

## Cc1ccc(CN(CCN(Cc2ccc(C)cn2)Cc2ccc(C)cn2)Cc2ccc(C)cn2)nc1 [Compound #6]
[1]
  protective effect against hypoxic insult (LDH release) compared with TPEN, FIG. 1A: significantly better protective outcome from hypoxia than TPEN
[2]; 0.2 mg/kg intravenous infusion
  Infarct/AAR (%) Mean: 22.2±5.24%
  Infarct/LV (%) Mean: 7%
[2]; 0.2 mg/kg intravenous infusion, listed as Comp #6
  Infarct/AAR (%) Mean: 22^b %
[2]; 2 mg/kg intravenous infusion
  Infarct/AAR (%) Mean: 19.1±7.38%
  Infarct/LV (%) Mean: 7%
[2]; 2 mg/kg intravenous infusion, listed as Comp #6
  Infarct/AAR (%) Mean: 19^b %
[2]; either 0.2 or 2.0 mg/kg IV as an infusion, 30 minute ischemia, vs saline and vehicle controls
  infarct size following ischemia-reperfusion injury, in words: significant decrease in infarct size
